Assays:
Nitric oxide synthase 3 = biological target: T1, Nitric oxide synthase 3 (Homo sapiens, UniProt P29474); experiment: In vitro inhibition of human endothelial nitric oxide synthase.
T1 sequence (P29474 whole entry): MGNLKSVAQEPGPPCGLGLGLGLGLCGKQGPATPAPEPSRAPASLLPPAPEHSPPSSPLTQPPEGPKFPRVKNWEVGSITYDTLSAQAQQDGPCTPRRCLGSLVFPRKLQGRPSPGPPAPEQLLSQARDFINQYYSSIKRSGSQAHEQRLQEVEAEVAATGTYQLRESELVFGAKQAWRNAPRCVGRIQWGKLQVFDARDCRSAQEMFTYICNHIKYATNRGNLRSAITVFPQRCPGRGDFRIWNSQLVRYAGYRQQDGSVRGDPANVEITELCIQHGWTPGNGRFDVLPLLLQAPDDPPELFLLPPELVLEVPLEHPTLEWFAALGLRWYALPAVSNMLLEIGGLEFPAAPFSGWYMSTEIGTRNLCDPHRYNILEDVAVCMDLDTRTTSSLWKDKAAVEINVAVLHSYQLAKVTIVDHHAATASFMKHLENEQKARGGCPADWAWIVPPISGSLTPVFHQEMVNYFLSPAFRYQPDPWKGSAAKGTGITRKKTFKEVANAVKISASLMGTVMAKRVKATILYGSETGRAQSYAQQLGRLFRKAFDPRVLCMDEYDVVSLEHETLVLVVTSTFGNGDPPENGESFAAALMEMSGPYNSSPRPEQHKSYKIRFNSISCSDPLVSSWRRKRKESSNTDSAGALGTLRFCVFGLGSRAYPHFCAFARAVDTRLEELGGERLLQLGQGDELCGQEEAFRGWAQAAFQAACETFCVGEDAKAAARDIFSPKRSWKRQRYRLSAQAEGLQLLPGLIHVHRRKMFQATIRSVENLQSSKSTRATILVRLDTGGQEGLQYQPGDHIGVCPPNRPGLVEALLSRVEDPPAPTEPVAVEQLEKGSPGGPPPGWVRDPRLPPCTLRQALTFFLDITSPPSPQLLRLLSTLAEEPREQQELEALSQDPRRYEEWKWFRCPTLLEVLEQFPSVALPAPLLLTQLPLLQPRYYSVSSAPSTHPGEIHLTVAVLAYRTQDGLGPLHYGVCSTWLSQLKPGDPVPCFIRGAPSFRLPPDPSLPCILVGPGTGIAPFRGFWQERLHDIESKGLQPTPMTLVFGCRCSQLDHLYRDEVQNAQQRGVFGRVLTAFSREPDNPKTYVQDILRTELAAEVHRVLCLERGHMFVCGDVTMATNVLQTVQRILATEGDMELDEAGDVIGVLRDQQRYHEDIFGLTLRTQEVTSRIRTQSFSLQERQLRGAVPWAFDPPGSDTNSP

[1] = biological target: Nitric oxide synthase, inducible (Homo sapiens, UniProt P35228)
Nitric oxide synthase 1 [2] = biological target: T2, Nitric oxide synthase 1 (Homo sapiens, UniProt P29475)
Description: In vitro inhibition of human neuronal nitric oxide synthase.

Nitric oxide synthase 1 [3] = biological target: T2, Nitric oxide synthase 1; experiment: Percentage inhibition of human neuronal nitric oxide synthase (nNOS) at 100 uM
[4] = biological target: T3, Nitric oxide synthase 3 (Homo sapiens) (UniProt P29474); experiment: Percentage inhibition of human endothelial nitric oxide synthase (eNOS) at 100 uM
T3 sequence (whole entry): T1 sequence (P29474 whole entry)

T2 sequence (P29475 whole entry): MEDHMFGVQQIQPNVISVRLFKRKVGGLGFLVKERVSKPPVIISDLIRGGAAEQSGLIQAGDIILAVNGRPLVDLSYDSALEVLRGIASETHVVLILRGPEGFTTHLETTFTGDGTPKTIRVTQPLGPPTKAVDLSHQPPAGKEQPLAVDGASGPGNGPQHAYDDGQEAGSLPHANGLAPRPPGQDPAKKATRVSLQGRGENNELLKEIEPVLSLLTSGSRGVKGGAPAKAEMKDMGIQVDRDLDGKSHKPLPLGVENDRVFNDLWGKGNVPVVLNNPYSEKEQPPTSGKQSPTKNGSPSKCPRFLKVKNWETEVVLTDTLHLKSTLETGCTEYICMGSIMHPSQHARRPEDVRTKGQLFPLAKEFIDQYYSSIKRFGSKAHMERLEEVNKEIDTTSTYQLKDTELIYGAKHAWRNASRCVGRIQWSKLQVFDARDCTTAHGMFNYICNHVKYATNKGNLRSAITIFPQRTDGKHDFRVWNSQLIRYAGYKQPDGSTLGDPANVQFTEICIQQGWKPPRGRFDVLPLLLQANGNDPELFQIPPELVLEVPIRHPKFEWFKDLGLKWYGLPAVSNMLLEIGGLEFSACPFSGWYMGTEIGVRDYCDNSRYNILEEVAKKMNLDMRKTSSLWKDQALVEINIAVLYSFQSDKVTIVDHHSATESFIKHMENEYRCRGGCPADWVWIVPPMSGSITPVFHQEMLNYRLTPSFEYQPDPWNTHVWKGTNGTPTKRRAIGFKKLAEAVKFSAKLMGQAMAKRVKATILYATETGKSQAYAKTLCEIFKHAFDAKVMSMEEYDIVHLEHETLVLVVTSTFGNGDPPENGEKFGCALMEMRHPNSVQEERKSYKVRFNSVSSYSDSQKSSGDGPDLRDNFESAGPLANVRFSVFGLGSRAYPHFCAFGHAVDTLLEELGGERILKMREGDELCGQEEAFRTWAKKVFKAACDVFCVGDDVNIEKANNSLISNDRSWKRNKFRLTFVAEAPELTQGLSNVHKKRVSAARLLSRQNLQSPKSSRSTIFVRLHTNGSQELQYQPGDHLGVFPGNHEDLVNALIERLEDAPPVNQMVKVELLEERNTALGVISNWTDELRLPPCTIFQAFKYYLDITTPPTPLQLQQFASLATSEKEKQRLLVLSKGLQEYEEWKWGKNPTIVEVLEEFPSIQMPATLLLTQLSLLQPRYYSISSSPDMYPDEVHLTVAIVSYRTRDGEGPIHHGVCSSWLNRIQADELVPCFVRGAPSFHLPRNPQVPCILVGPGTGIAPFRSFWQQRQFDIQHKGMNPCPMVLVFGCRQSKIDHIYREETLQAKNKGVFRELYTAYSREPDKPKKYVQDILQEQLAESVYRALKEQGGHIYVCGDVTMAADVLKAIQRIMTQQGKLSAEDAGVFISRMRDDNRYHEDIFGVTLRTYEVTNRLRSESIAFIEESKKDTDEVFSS
Nitric oxide synthase, inducible, sequence (P35228 whole entry): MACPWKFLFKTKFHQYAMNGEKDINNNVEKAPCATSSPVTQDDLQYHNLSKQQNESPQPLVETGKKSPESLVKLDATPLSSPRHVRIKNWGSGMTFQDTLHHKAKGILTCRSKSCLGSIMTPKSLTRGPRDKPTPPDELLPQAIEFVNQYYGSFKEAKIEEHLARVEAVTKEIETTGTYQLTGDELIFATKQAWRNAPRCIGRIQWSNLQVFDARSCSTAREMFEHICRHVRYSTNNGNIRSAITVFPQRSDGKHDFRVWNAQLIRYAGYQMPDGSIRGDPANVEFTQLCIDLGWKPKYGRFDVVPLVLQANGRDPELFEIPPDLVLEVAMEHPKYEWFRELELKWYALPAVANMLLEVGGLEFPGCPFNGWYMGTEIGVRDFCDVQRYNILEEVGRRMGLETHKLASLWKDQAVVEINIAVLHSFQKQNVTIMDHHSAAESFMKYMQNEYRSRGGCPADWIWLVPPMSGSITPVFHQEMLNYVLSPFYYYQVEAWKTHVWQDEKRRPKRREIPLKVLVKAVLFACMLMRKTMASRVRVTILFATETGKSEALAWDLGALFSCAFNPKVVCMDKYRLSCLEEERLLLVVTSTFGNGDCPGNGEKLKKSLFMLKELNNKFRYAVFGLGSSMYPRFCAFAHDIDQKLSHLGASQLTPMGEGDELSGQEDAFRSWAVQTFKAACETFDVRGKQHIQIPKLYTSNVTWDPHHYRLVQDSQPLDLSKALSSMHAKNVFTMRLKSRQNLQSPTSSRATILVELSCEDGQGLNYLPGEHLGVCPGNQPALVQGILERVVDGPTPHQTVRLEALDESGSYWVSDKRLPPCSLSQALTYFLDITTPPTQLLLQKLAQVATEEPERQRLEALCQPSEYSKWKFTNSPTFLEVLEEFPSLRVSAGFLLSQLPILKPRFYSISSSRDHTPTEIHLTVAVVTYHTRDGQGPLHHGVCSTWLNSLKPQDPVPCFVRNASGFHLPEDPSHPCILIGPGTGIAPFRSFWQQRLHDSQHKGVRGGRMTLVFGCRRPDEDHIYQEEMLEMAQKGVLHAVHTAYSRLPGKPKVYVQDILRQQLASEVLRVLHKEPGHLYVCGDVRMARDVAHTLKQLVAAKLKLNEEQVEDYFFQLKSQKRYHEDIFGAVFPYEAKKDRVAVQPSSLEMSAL

IC50 (Nitric oxide synthase 3) | IC50 [1] | IC50 (Nitric oxide synthase 1 [2]) | inhibition (Nitric oxide synthase 1 [3]) | inhibition [4] | SMILES
100 µM | 0.53 µM | 28 µM |  |  | COc1ccnc(NC2CCN(C(=O)c3ccccc3)CC2)c1
4.8 µM | 0.026 µM | 0.24 µM |  |  | CCCC1CCCCCC(N)=N1 (stereo not given)
34 µM | 0.07 µM | 18 µM |  |  | CC(=N)NCCSCC[C@H](N)C(=O)O [GW-274150]
 |  | 2.2 µM |  |  | CCc1ccnc(N)c1
> 100 µM | 13 µM | > 100 µM | < 20% | < 20% | CCOC(=O)N1CCC(Nc2ccccn2)CC1
 |  | 1.6 µM |  |  | CC(=N)NCCCC[C@H](N)C(=O)O [L-NIL]
> 100 µM | 3.8 µM | 96 µM |  | < 20% | CCOC(=O)N1CCC(Nc2cc(OCC)ccn2)CC1

Further lines, the molecule ahead of its results:

SMILES | IC50 (Nitric oxide synthase 3) | IC50 [1] | IC50 (Nitric oxide synthase 1 [2]) | inhibition (Nitric oxide synthase 1 [3]) | inhibition [4]
Cc1cc(C)nc(N)c1 | 0.17 µM | 0.045 µM | 0.098 µM |  | 
COc1ccnc(N)c1 | 1 µM | 1 µM | 1 µM |  | 
CNc1cc(C)cc(C)n1 | 30 µM | 86 µM | > 100 µM | < 20% | 
COc1ccnc(NC2CCN(C(=O)c3ccc(C#N)cc3)CC2)c1 |  |  |  |  | < 20%
COc1ccnc(NC2CCN(C(=O)c3ccc(Cl)cc3)CC2)c1 | 36 µM | 0.053 µM | 7.8 µM |  | 
N#Cc1ccc(C(=O)N2CCC3(CC2)N=C(N)c2c(F)ccc(F)c2N3)cn1 |  |  |  |  | < 20%
